From the supplement of paper PMC5412046

Assays:
[1] = test system: SB.msgc-1; assay: AC50 for growth inhibition (viability) (log10 M); higher = less potent; settings: SB.msgc-1 (sporadic gastric cancer)
Method in brief: (§1)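 Gastric cancer cells derived from patients with hereditary or sporadic disease were seeded at 500 cells in 5 μL medium per 1536 well. A pintool delivered 23 nL of compound in DMSO, as 11 threefold dilutions from a final 46 μM. After 48 h, CellTiter-Glo was added for 30 min at room temperature and luminescence was read on a ViewLux. The log half-maximal activity concentration was taken from a four-parameter fit of viability normalised to DMSO, using only high-quality curve classes.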

[2] = test system: SB.mhdgc-1; assay: as above; settings: SB.mhdgc-1 (hereditary c.1380delA CDH1 gastric cancer)
Method in brief: as §1

SMILES | AC50 for growth inhibition (log10 M) [1] | AC50 for growth inhibition (log10 M) [2]
C=C1/C(=C\C=C2/CCC[C@]3(C)[C@@H]([C@H](C)/C=C/[C@H](C)C(C)C)CC[C@@H]23)C[C@@H](O)C[C@@H]1O [Doxercalciferol] | -6.23 | -6.73
CC1=C(/C=C/C(C)=C/C=C/C(C)=C\C(=O)O)C(C)(C)CCC1 [Isotretinoin] | -5.33 | -4.63
CN1CCN(CCCN2c3ccccc3Sc3ccc(C(F)(F)F)cc32)CC1 [Stelazine  trifluoperzine] | -5.08 | -5.63
ClC/1=C(NCCN2CCOCC2)/C(=O)C3=C(C=CC=N3)C1=O [DA-3003-1] | -5.18 | -5.58
O=C1\C=C(/OC2=C1C=CC=C2C3=CC=CC=C3)N4CCOCC4 | -4.73 | -5.18
C=CCc1cccc(/C=N/NC(=O)CN2CCN(Cc3ccccc3)CC2)c1O [PAC-1] | -5.23 | -5.13
OC[C@H]1O[C@H](C[C@@H]1O)N2\C=C(F)/C(=O)NC2=O [Floxuridine] | -6.48 | -7.78
CC(C)(C(=O)NCC(F)(F)C(F)(F)F)C(=O)N[C@@H]1C(=O)Nc2ccccc2-c2ccccc21 | -5.23 | -4.83
COC(=O)C\1=C(C)\N\C(=C(/C1C2=CC=CC3=NON=C23)C(=O)OC(C)C)C (stereo not given) [Isradipine] | -4.78 | -5.38
c1ccc(CCCN2CCN(CCOC(c3ccccc3)c3ccccc3)CC2)cc1 | -4.68 | -4.73
Cc1c(O)cccc1C(=O)N[C@@H](CSc1ccccc1)[C@H](O)CN1C[C@H]2CCCC[C@H]2C[C@H]1C(=O)NC(C)(C)C [Viracept] | -4.73 | -4.73
FC(F)(F)c1ccc(/C=C/c2nc(COc3ccc(CCCCn4ccnn4)cc3)co2)cc1 [Mubritinib] | -7.83 | -6.78
CC(C)(C)NC(=O)[C@H]1CC[C@H]2[C@@H]3CC[C@H]4NC(=O)\C=C/[C@]4(C)[C@H]3CC[C@]12C [Finasteride] | -5.78 | -6.23
CC1(C)CC(=O)c2c(C(F)(F)F)nn(-c3ccc(C(N)=O)c(NC4CCC(OC(=O)CN)CC4)c3)c2C1 (stereo not given) [SNX-5422] | -7.13 | -6.58
Cn1c2ccccc2c2c3c(c4c5ccccc5n(CCC#N)c4c21)CNC3=O [G?-6976] | -5.23 | -5.08
O=C1\C=C(OC2=C(C=CC=C12)C3=CC=CC4=C3SC5=C4C=CC=C5)\N6CCOCC6 [NU-7441] | -4.78 | -4.68
CC(=O)O[C@H]1C[C@@H]2CC[C@@H]3[C@H](CC[C@@]4(C)[C@H]3C[C@H]([N+]3(C)CCCCC3)[C@@H]4OC(C)=O)[C@@]2(C)C[C@@H]1N1CCCCC1 [Vecuronium bromide] | -5.58 | -5.93
O=C(NC1CCNCC1)c1n[nH]cc1NC(=O)c1c(Cl)cccc1Cl [AT-7519] | -6.68 | -7.18
CO[C@H]1CCC(O[C@H]2C[C@H]([C@]3(C)CC[C@]4(C[C@H](O)[C@@H](C)[C@@H]([C@@H](C)/C=C(\C)C(=O)[C@H](C)C[C@H](C)C(=O)[O][Na])O4)O3)O[C@]3(O[C@@H]([C@H]4O[C@@](O)(CO)[C@H](C)C[C@@H]4C)C[C@@H]3C)[C@@H]2C)O[C@@H]1C (stereo not given in full) [Nanchangmycin] | -6.68 | -6.83
Cc1cccc(/C=N/Nc2cc(N3CCOCC3)nc(OCCc3ccccn3)n2)c1 [Apilimod] | -4.78 | -4.88
COc1ccc(F)c(F)c1C(=O)c1cnc(NC2CCN([S+](C)(=O)[O-])CC2)nc1N [R-547] | -6.03 | -5.73
Cc1cn[nH]c1 [Fomepizole] | -7.18 | -6.68
CC(C)=CCC/C(C)=C/CC/C(C)=C/CSc1ccccc1C(=O)O [Salirasib] | -5.58 | -6.43

SMILES | AC50 for growth inhibition (log10 M) [1] | AC50 for growth inhibition (log10 M) [2]
O=C(NC[C@H](O)CO)c1ccncc1Nc1ccc(I)cc1F [Pimasertib] | -6.38 | -4.73
C[C@@H](NC1=CC=CC=C1C(O)=O)C/2=C/C(=C\N3C(=O)/C=C(\N=C23)N4CCOCC4)C [AZD-6482] | -4.87 | -4.82
N=C(NCCCCCCNC(=N)NC(=N)Nc1ccc(Cl)cc1)NC(=N)Nc1ccc(Cl)cc1 [Chlorhexidine] | -5.43 | -5.28
OC1=C(C=CC=C1)C2=CC=C(C=C2)C3=CSC4=C3C(=C(/C#N)C(=O)N4)/O | -4.78 | -5.83
CN1/C=C(\N=C(NC2=CC=C(C=C2)C(=O)N3CCOCC3)/C1=O)/C4=C(C)C(=CC=C4)NC(=O)C5=CC=C(C=C5)C(C)(C)C [CGI-1746] | -5.23 | -4.63
COC[C@H](NC(=O)c1cnc(C)s1)C(=O)N[C@@H](COC)C(=O)N[C@@H](Cc1ccccc1)C(=O)[C@@]1(C)CO1 [Oprozomib] | -6.93 | -6.93
COc1cc(O)c2c(c1)C1OC1C[C@H](O)[C@H](O)C(=O)/C=C\C[C@H](C)OC2=O (stereo not given in full) [Hypothemycin] | -4.83 | -5.03
CN[C@@H]1C[C@H]2O[C@@](C)([C@@H]1OC)n1c3ccccc3c3c4c(c5c6ccccc6n2c5c31)C(=O)N[C@H]4O [7-Hydroxystaurosporine] | -5.93 | -6.28
Cc1cc(OCCCc2c(C(=O)O)n(Cc3cccnc3)c3c(-c4c(COc5ccc(N6CCN([S+](C)(=O)[O-])CC6)cc5)nn(C)c4C)cccc23)cc(C)c1Cl | -4.63 | -4.73
O=C1NC(=O)/C(=C/c2ccc3nccc(-c4ccncc4)c3c2)S1 [GSK-615] | -6.03 | -6.33
O=C(NCc1ccccc1)[C@H](Cc1ccccc1)NC(=O)[C@H]1O[C@@H]1C(=O)NCCc1ccc(O)cc1 [CAA0225] | -6.08 | -6.48
OC1=CC=C(C=C1)\C2=C\C(=O)C3=C(O2)C=C(O)C=C3O [Apigenin] | -4.83 | -5.08
COc1cc([C@@H]2c3cc4c(cc3[C@@H](O)C3COC(=O)C32)OCO4)cc(OC)c1O (stereo not given in full) [4-Demethylepipodophyllotoxin] | -6.63 | -7.38
COc1cc(C)c(Sc2cnc(NC(=O)c3ccc(CNC(C)C(C)(C)C)cc3)s2)cc1C(=O)N1CCN(C(C)=O)CC1 (stereo not given) | -4.98 | -4.98
CCN1CCC(n2cc(CNc3cc(Cl)c4ncc(C#N)c(Nc5ccc(F)c(Cl)c5)c4c3)nn2)CC1 [Wyeth Cot inhibitor-2] | -4.73 | -5.03
Nc1ncnc2c1ncn2[C@@H]1O[C@H](CO)[C@@H](O)[C@H]1O [Adenosine] | -5.58 | -6.08
N#Cc1c(NC(=O)c2cccc3ccccc23)sc2c1CCCC2 [TCS JNK 5a] | -5.98 | -5.88
CCCCOc1ccc(CC(=O)NO)cc1 [Bufexamac] | -4.88 | -5.43
CCCCOc1c(C(=O)c2c(F)cc(C)cc2F)cnc2[nH]ncc12 | -5.63 | -5.63
CC(C)(O)Cn1c(NC(=O)c2ccc(-c3cn[nH]c3)s2)nc2cc(CN3CCOCC3)ccc21 | -5.63 | -5.83
CCCCc1oc2ccccc2c1C(=O)c1cc(I)c(OCCN(CC)CC)c(I)c1 [Amiodarone] | -5.03 | -4.88
CCc1cnn2c(NCc3ccc[n+]([O-])c3)cc(N3CCCC[C@H]3CCO)nc12 [Dinaciclib] | -7.88 | -8.03
